Source: patent US5095137A, “Amides of cyclomethylen-1,2-bicarboxylic acids having therapeutical activity” (Laboratori Guidotti SpA, priority 1988, dated 1992)

Legend:
ACE = biological target: T1, ACE (Rattus norvegicus, UniProt P47820); assay: ACE inhibition: hydrolysis of the ippuril-glycil-glycine artificial substrate by the ACE contained in rat serum; format: biochemical
T1 construct: by the ACE contained in the rat serum; from tissue; host or cells: rat serum
T1 sequence (P47820 36-1238 limits assumed): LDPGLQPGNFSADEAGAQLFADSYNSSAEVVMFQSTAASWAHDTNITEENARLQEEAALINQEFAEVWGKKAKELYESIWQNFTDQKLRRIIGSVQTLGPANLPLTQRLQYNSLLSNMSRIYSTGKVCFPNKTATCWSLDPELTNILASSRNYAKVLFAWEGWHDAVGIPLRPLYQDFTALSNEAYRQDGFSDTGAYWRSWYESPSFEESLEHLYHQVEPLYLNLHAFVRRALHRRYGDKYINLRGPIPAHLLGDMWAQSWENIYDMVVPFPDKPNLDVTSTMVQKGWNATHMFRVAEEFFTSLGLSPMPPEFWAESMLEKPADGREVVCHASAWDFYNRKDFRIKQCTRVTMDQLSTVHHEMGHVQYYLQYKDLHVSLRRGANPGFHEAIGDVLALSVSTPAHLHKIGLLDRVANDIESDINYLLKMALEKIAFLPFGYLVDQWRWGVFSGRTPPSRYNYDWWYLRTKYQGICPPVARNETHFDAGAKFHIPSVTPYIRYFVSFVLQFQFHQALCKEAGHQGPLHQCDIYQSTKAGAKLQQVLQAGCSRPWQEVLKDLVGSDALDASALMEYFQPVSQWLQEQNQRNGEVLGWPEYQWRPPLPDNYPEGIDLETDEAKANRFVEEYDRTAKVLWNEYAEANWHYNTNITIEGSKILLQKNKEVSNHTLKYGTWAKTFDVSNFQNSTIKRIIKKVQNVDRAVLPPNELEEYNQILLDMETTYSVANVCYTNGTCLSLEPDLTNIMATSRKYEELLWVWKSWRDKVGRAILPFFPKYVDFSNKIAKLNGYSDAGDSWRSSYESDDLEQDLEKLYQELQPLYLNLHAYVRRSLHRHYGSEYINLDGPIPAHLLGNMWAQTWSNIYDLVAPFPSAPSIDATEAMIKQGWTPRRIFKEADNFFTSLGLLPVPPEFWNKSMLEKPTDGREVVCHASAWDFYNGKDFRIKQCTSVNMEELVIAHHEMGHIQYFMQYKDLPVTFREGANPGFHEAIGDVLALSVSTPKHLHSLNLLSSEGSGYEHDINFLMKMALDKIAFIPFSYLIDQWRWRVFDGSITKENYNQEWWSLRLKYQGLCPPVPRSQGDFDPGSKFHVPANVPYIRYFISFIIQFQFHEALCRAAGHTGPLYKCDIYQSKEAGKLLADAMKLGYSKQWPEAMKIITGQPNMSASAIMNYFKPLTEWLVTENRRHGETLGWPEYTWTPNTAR
Description: The IC50 values have been calculated by the regression analysis of the linear part of the log dose/percent inhibition curve.

[1] = test system: blood pressure increases induced by angiotensin I; assay: Antihypertensive activity i.v. in the anaesthetized ganglion-blocked rat (inhibition of blood pressure increases induced by repeated i.v. injections of angiotensin I); format: in vivo
Description: Dose-dependent antihypertensive activity of selected compounds was calculated after intravenous administration to the anaesthetized ganglion-blocked rat. […] Half-lives (t1/2) of the antihypertensive action were also calculated and reported.

[2] = test system: pressure answer to angiotensin II; assay: Influence on the pressure answer to angiotensin II; format: in vivo; settings: up to the dose of 1 mg kg i.v.

| IC50 (ACE) | SMILES | other results |
| --- | --- | --- |
| 1600 nM | O=C(CNC(=O)[C@H]1CCCC[C@H]1C(=O)O)NO (relative stereo) [Example 1] |  |
| 8 nM | CCN(CC(=O)NO)C(=O)[C@@H]1CCCC[C@H]1C(=O)O (relative stereo) [Example 2, Trans-2[[N-[2-(hydroxyamino)-2-oxoethyl]-N-ethylamino]carbonyl]- -cyclohexanecarboxylic acid] | Antihypertensive activity t1/2 (half-life of the antihypertensive action) [1]: 14 min |
| 6 nM | CN(CC(=O)NO)C(=O)[C@H]1CCCC[C@H]1C(=O)O (relative stereo) [Example 4, cis-2[[N-[2-(hydroxyamino)-2-oxoethyl]-N-methylamino]carbonyl]-cyclohexanecarboxylic acid] | influence on the pressure answer to angiotensin II [2]: has not influenced; Antihypertensive activity t1/2 (half-life of the antihypertensive action) [1]: 15 min |
| 730 nM | CN(CC(=O)NO)C(=O)[C@@H]1CCC[C@H]1C(=O)O (relative stereo) [Example 6, Trans-2[[N-[2-(hydroxyamino)-2-oxoethyl]-N-methylamino]carbonyl]cyclopentanecarboxylic acid] |  |
| 400 nM | O=C(NO)C(Cc1ccccc1)NC(=O)[C@H]1CCCC[C@H]1C(=O)O (relative stereo) [Example 18, Cis-2[[N-[1-benzyl-2-(hydroxyamino)-2-oxoethyl]amino]carbonyl]-cyclohexane carboxylic acid] |  |
| 28000 nM | O=C(NO)C(CCc1ccccc1)NC(=O)[C@H]1CCCC[C@H]1C(=O)O (relative stereo) [Example 19, Cis-2[[N-[1-(2-phenylethyl)-2-(hydroxyamino)-2-oxoethyl]amino]carbonyl]cyclohexanecarboxylic acid] |  |
| 10000 nM | O=C(NO)C(CCCc1ccccc1)NC(=O)[C@H]1CCCC[C@H]1C(=O)O (relative stereo) [Example 20, Cis-2[[N-[1-(3-phenylpropyl)-2-(hydroxyamino)-2-oxoethyl]amino]carbonyl]-cyclohexanecarboxylic acid] |  |
| 20 nM | CN(CC(=O)NO)C(=O)[C@@H]1CCCC[C@H]1C(=O)O (relative stereo) [Example 21, Trans-2-[[N-[2-(hydroxyamino)-2-oxoethyl]-N-methylamino]carbonyl]-cyclohexanecarboxylic acid] | Antihypertensive activity t1/2 (half-life of the antihypertensive action) [1]: 15 min |
| 25 nM | CCN(CC(=O)NO)C(=O)[C@H]1CCCC[C@H]1C(=O)O (relative stereo) [Example 26, Cis-2[[N-[2-(hydroxyamino)-2-oxoethyl]-N-ethylamino]carbonyl]cyclohexane-carboxylic acid] |  |
| 30 nM | CN(C(=O)[C@H]1CCCC[C@H]1C(=O)O)C(Cc1ccccc1)C(=O)NO (relative stereo) [Example 29, Cis-2[[N-[1-benzyl-2-(hydroxyamino)-2-oxoethyl]-N-methylamino]carbonyl]-cyclohexanecarboxylic acid] |  |
| 30 nM | CN(C(=O)[C@@H]1CCCC[C@H]1C(=O)O)C(Cc1ccccc1)C(=O)NO (relative stereo) [Example 30, Trans-2[[N-[1-benzyl-2-(hydroxyamino)-2-oxoethyl]-N-methylamino]carbonyl]-cyclohexanecarboxylic acid] |  |
| 135 nM | CN(C(=O)[C@H]1CCCC[C@H]1C(=O)O)C(CCCc1ccccc1)C(=O)NO (relative stereo) [Example 32, Cis-2[[N-[1-(3-phenylpropyl)-2-(hydroxyamino)-2-oxoethyl]-N-methylamino]carbonyl]-cyclohexanecarboxylic acid] |  |
| 3500 nM | O=C(NO)C(CNC(=O)[C@H]1CCCC[C@H]1C(=O)O)Cc1ccccc1 (stereo partly shown) [Example 3] |  |
| 7.6 nM | CCN(CC(=O)NO)C(=O)[C@@H]1CCCC[C@H]1C(=O)O [Example 7, trans-(1R,2R)-2[[N-[2-(hydroxyamino)-2-oxoethyl]N-ethylamino]carbonyl]-cyclohexanecarboxylic acid] |  |
| 62 nM | CN(C(=O)[C@H]1CCCC[C@H]1C(=O)O)C(CCc1ccccc1)C(=O)NO (stereo partly drawn) [Example 8, Cis-2[[N-[1-(2-phenylethyl)-2-(hydrxyamino)-2-oxoethyl]-N-methylamino]carbonyl]-cyclohexanecarboxylic acid] |  |
| 3.5 nM | CN(CC(=O)NO)C(=O)[C@@H]1CCCC[C@@H]1C(=O)O [Example 9, Cis-(1S,2R)-2[[N-[2-(hydroxyamino)-2-oxoethyl]-N-methylamino]carbonyl]-cyclohexanecarboxylic acid] |  |

| SMILES | IC50 (ACE) | other results |
| --- | --- | --- |
| CC(=O)ON(C(C)=O)C(=O)CN(C)C(=O)[C@H]1CCCC[C@H]1C(=O)O (relative stereo) [Example 14, Cis-2-[[N-[2-(N'-acetoxy-N'-acetylamino)-2-oxoethyl]-N-methyl-amino]carbonyl]cyclohexanecarboxylic acid] | 280 nM | ED50 ([1]; iv, 1 min, angiotensin I-induced pressure increase, at time of maximum effect (1 min)): 1.5 mg/kg |
